Test results as given in PubChem BioAssay AID1053168 (Broad Institute, 2014).
Calls of active or inactive are those of the source. How the calls were made is not given here.

Assays:
[1] = Vaccinia infected cells, stage specific inhibitors, mcherry venus reporter fluorescence, confirmatory dose response (AID 1053168); conditions: Vaccinia-infected cells, mCherry/Venus stage reporter fluorescence
[2] = test system: Vaccinia-infected cells, mCherry/Venus stage reporter fluorescence; experiment: as above
[3] = measured here: Venus reporter AC50
[4] = measured here: mCherry reporter AC50

Row | SMILES | activity change, negative = inhibition ([1]; at 21 µM (top of the series)) | AC50 [2, 3] [µM] | AC50 [2, 4] [µM] | activity change, negative = inhibition ([1]; at 19.5 µM (top of the series)) | AC50 [2] [µM]
1 | C[C@H](CO)N1C[C@H](C)[C@H](CN(C)Cc2ccc(-c3ccccc3)cc2)Oc2cc(C#C[C@@H](C)O)ccc2S1(=O)=O | -20% (inactive) | > 42 | > 42 |  | 
2 | O=C(Nc1ccc2c(c1)[C@@H]1C[C@@H](CC(=O)N3CCc4ccccc4C3)O[C@@H](CO)[C@@H]1O2)Nc1ccccc1F |  |  |  | -50.6% (inactive) | 
3 | Cc1noc(C)c1S(=O)(=O)Nc1ccc2c(c1)C(=O)N([C@@H](C)CO)C[C@@H](C)[C@H](CN(C)S(=O)(=O)c1cccs1)O2 | -3.33% (inactive) |  |  |  | 
4 | C[C@H](CO)N1C[C@H](C)[C@@H](CN(C)Cc2ccc(-c3ccccc3)cc2)Oc2cc(C#C[C@@H](C)O)ccc2S1(=O)=O | -19.5% (inactive) |  | > 42 |  | 
5 | COc1ccccc1CN1CC[C@@H]2[C@H]1c1cc(C#Cc3ccccc3)ccc1N[C@@H]2CO |  |  | 20.7 |  | 20.7
6 | C[C@H](O)C#Cc1ccc2c(c1)O[C@H](CN(C)Cc1ccc(-c3ccccc3)cc1)[C@@H](C)CN([C@@H](C)CO)S2(=O)=O |  | 15.9 | 16.4 |  | 16.4
7 | CN(C)C(=O)c1ccc(-c2cccc(-c3nc(C(=O)NC4CCCCC4)cc4c3[C@@H](CCO)N([S@](=O)C(C)(C)C)C4)c2)cc1 | -8.97% (inactive) |  |  |  | 
8 | C[C@H](CO)N1C[C@H](C)[C@@H](CN(C)S(=O)(=O)c2ccc(Cl)cc2)Oc2c(NS(=O)(=O)c3cn(C)cn3)cccc2C1=O | -2.63% (inactive) |  |  |  | 
9 | C[C@H](O)C#Cc1ccc2c(c1)O[C@H](CN(C)Cc1ccccc1)[C@@H](C)CN([C@@H](C)CO)S2(=O)=O | -24.7% (inactive) | > 42 | > 42 |  | 
10 | COc1ccccc1CN1CC[C@H]2[C@H](CO)Nc3ccc(-c4ccc(C(=O)N(C)C)cc4)cc3[C@H]21 | -16.1% (inactive) |  | > 42 |  | 
11 | COc1ccccc1CN1CC[C@@H]2[C@@H](CO)Nc3ccc(-c4ccc(C(=O)N(C)C)cc4)cc3[C@@H]21 | -12.1% (inactive) | > 42 | > 42 |  | 
12 | CCCNC(=O)C[C@H]1CC[C@@H]2[C@@H](COc3ccc(NC(=O)CCC)cc3C(=O)N2C)O1 | 2.55% (inactive) |  |  |  | 
13 | C[C@H](O)C#Cc1ccc2c(c1)O[C@@H](CN(C)Cc1ccccc1)[C@@H](C)CN([C@@H](C)CO)S2(=O)=O | -2.82% (inactive) |  |  |  | 
14 | C[C@H]1CN([C@@H](C)CO)S(=O)(=O)c2ccc(C#CC(C)(C)O)cc2O[C@H]1CN(C)Cc1ccc(-c2ccccc2)cc1 |  | 16.6 | 14.9 |  | 14.9
15 | CCOC(=O)[C@@H]1[C@@H]2C=C[C@]3(O2)[C@H](C(=O)NCc2ccccc2)N(CCCCCCO)C(=O)[C@@H]13 | -18.7% (inactive) | > 42 | > 42 |  | 
16 | C[C@@H](O)C#Cc1ccc2c(c1)O[C@@H](CN(C)Cc1cccnc1)[C@@H](C)CN([C@@H](C)CO)S2(=O)=O | 6.15% (inactive) |  |  |  | 
17 | C[C@@H](O)C#Cc1ccc2c(c1)O[C@@H](CN(C)Cc1ccc(-c3ccccc3)cc1)[C@@H](C)CN([C@@H](C)CO)S2(=O)=O |  |  | 3.67 |  | 3.67
18 | C[C@H]1CCCCO[C@H](CN(C)S(=O)(=O)c2ccc(Cl)cc2)[C@@H](C)CN([C@@H](C)CO)C(=O)c2cc(NC(=O)Nc3ccc(F)cc3)ccc2O1 | -17.8% (inactive) | > 42 | > 42 |  | 
19 | C[C@@H]1CN([C@@H](C)CO)S(=O)(=O)c2ccc(C#C[C@@H](C)O)cc2O[C@@H]1CN(C)Cc1ccccc1 | -27% (inactive) | > 42 |  |  | 
20 | COc1ccccc1CN1CC[C@@H]2[C@@H](CO)Nc3ccc(C#Cc4ccccc4)cc3[C@@H]21 |  |  | 20.9 |  | 20.9
21 | O=C(Nc1ccc2c(c1)[C@@H]1C[C@@H](CC(=O)N3CCCCC3)O[C@@H](CO)[C@@H]1O2)Nc1ccccc1F | 3.1% (inactive) |  |  |  | 
22 | C[C@H](O)C#Cc1ccc2c(c1)O[C@H](CN(C)Cc1ccccc1)[C@H](C)CN([C@H](C)CO)S2(=O)=O | -3.27% (inactive) |  |  |  | 
23 | C[C@@H]1CN([C@H](C)CO)S(=O)(=O)c2ccc(C#C[C@@H](C)O)cc2O[C@@H]1CN(C)Cc1ccccc1 | -2.36% (inactive) |  |  |  | 
24 | COc1ccccc1CN1CC[C@@H]2[C@H]1c1cc(-c3ccc(C(=O)N(C)C)cc3)ccc1N[C@@H]2CO | -27.4% (inactive) |  | > 42 |  | 
25 | C[C@@H]1CN([C@H](C)CO)S(=O)(=O)c2ccc(C#C[C@@H](C)O)cc2O[C@H]1CN(C)Cc1ccccc1 | -15.2% (inactive) |  |  |  | 
26 | C[C@H](O)C#Cc1ccc2c(c1)O[C@H](CN(C)Cc1ccc(-c3ccccc3)cc1)[C@H](C)CN([C@H](C)CO)S2(=O)=O |  | 20.3 | 17.1 |  | 17.1
27 | C[C@H](O)C#Cc1ccc2c(c1)O[C@@H](CN(C)Cc1ccccc1)[C@H](C)CN([C@@H](C)CO)S2(=O)=O | -8.31% (inactive) | > 42 | > 42 |  | 
28 | CN1c2ccc(C#Cc3cccnc3)cc2[C@H]2[C@H](CCN2C(=O)C2CCCCC2)[C@@H]1CO | 9.03% (inactive) |  |  |  | 

Row | SMILES | activity change, negative = inhibition ([1]; at 21 µM (top of the series)) | AC50 [2, 3] [µM] | AC50 [2, 4] [µM] | activity change, negative = inhibition ([1]; at 19.5 µM (top of the series)) | AC50 [2] [µM]
29 | OC[C@H]1Nc2ccc(-c3cccc(F)c3)cc2[C@H]2[C@@H]1CCN2Cc1ccc(F)cc1 | -30.8% (inactive) |  | > 42 |  | 
30 | CN1c2ccc(-c3ccc(C#N)cc3)cc2[C@@H]2[C@@H](CCN2C(=O)C2CCCCC2)[C@H]1CO | -26% (inactive) | > 42 |  |  | 
31 | CN1c2ccc(C#Cc3cccnc3)cc2[C@H]2[C@H](CCN2C(=O)C2CCCCC2)[C@H]1CO | 19.5% (inactive) |  |  |  | 
32 | C[C@H](O)C#Cc1ccc2c(c1)O[C@H](CN(C)Cc1ccccc1)[C@H](C)CN([C@@H](C)CO)S2(=O)=O | -6.79% (inactive) |  |  |  | 
33 | CO[C@H]1CN(C)C(=O)c2ccc(NC(=O)c3ccc(F)cc3)cc2OC[C@H](C)N(C(=O)c2ccc(F)cc2)C[C@@H]1C |  |  | 15.6 |  | 15.6
34 | C[C@@H](O)C#Cc1ccc2c(c1)O[C@H](CN(C)Cc1ccccc1)[C@@H](C)CN([C@@H](C)CO)S2(=O)=O | -5.1% (inactive) |  | > 42 |  | 
35 | C[C@H](O)C#Cc1ccc2c(c1)O[C@@H](CN(C)Cc1ccc(-c3ccccc3)cc1)[C@H](C)CN([C@@H](C)CO)S2(=O)=O |  | 20.5 | 21.8 |  | 21.8
36 | CN1c2ccc(C#Cc3cccnc3)cc2[C@H]2[C@H](CCN2C(=O)C2CCC2)[C@@H]1CO | -15.9% (inactive) |  |  |  | 
37 | C[C@H](CO)N1C[C@H](C)[C@H](CN(C)Cc2ccccc2)Oc2cc(C#C[C@@H](C)O)ccc2S1(=O)=O | 1.54% (inactive) |  |  |  | 
38 | C[C@H](O)C#Cc1ccc2c(c1)O[C@@H](CN(C)Cc1ccc(-c3ccccc3)cc1)[C@H](C)CN([C@H](C)CO)S2(=O)=O | -20.1% (inactive) |  | > 42 |  | 
39 | C[C@@H](O)C#Cc1ccc2c(c1)O[C@@H](CN(C)Cc1ccccc1)[C@@H](C)CN([C@@H](C)CO)S2(=O)=O | -38% (inactive) |  |  |  | 
40 | N#Cc1ccc(-c2ccc3c(c2)[C@H]2[C@H](CCN2C(=O)C2CCCCC2)[C@H](CO)N3)cc1 |  |  | 20.8 |  | 20.8
41 | C[C@H](O)C#Cc1ccc2c(c1)O[C@@H](CN(C)Cc1ccccc1)[C@H](C)CN([C@H](C)CO)S2(=O)=O | -12.7% (inactive) | > 42 | > 42 |  | 
42 | CN(C)C(=O)c1ccc(-c2cccc(-c3nc(C(=O)NC4CCCC4)cc4c3[C@H](CCO)N([S@@](=O)C(C)(C)C)C4)c2)cc1 | -8.2% (inactive) |  |  |  | 
43 | C[C@@H](O)C#Cc1ccc2c(c1)O[C@@H](CN(C)Cc1ccncc1)[C@@H](C)CN([C@@H](C)CO)S2(=O)=O | 1.8% (inactive) |  |  |  | 
44 | CN1c2ccc(C#Cc3cccnc3)cc2[C@@H]2[C@@H](CCN2C(=O)C2CCC2)[C@H]1CO | -4.64% (inactive) |  |  |  | 
45 | C[C@@H](O)C#Cc1ccc2c(c1)O[C@H](CN(C)Cc1ccc(-c3ccccc3)cc1)[C@@H](C)CN([C@@H](C)CO)S2(=O)=O |  | 20.8 | 18.9 |  | 18.9
46 | C[C@H](O)C#Cc1ccc2c(c1)O[C@@H](CN(C)Cc1ccc(-c3ccccc3)cc1)[C@@H](C)CN([C@@H](C)CO)S2(=O)=O | -12.2% (inactive) | > 42 | > 42 |  | 
47 | CN1c2ccc(C#Cc3cccnc3)cc2[C@@H]2[C@@H](CCN2C(=O)C2CCC2)[C@@H]1CO | 10.1% (inactive) |  |  |  | 
48 | C[C@@H]1CN([C@@H](C)CO)C(=O)Cc2cc(NC(=O)C3CCCCC3)ccc2O[C@H]1CN(C)C(=O)Nc1ccccc1 | -0.285% (inactive) |  |  |  | 
49 | C[C@H](O)C#Cc1ccc2c(c1)O[C@@H](CN(C)Cc1ccccc1)[C@@H](C)CN([C@H](C)CO)S2(=O)=O | 16.5% (inactive) |  |  |  | 
50 | COc1ccccc1-c1ccc2c(c1)[C@H]1[C@H](CCN1C(=O)C1CCCCC1)[C@@H](CO)N2 |  |  | 18.6 |  | 18.6
51 | CCCNC(=O)N(C)C[C@@H]1Oc2ncc(C#CC3CCCCC3)cc2C(=O)N([C@H](C)CO)C[C@@H]1C | -19.2% (inactive) | > 42 |  |  | 
52 | N#Cc1ccc(-c2ccc3c(c2)[C@@H]2[C@@H](CCN2C(=O)C2CCCCC2)[C@@H](CO)N3)cc1 | -10.8% (inactive) | > 42 |  |  | 
53 | C[C@H](O)C#Cc1ccc2c(c1)O[C@H](CN(C)Cc1ccc(-c3ccccc3)cc1)[C@H](C)CN([C@@H](C)CO)S2(=O)=O | -17.3% (inactive) | > 42 | > 42 |  | 
54 | C[C@H](O)C#Cc1ccc2c(c1)O[C@H](CN(C)Cc1ccccc1)[C@@H](C)CN([C@H](C)CO)S2(=O)=O | -3.87% (inactive) |  | > 42 |  | 
55 | CN1c2ccc(-c3ccc(C#N)cc3)cc2[C@H]2[C@H](CCN2C(=O)C2CCCCC2)[C@@H]1CO |  | 20.5 | 18.9 |  | 18.9
